Measured values from patent US20090203577A1 (EXELIXIS, INC., priority 2005, published 2009).
Read-outs that look alike come from different tables or passages of the source.

Biological target: T1, human farnesoid X receptor (Homo sapiens, UniProt Q96RI1)
T1 construct: CMX-farnesoid X receptor (full length human farnesoid X receptor); expressed in transfected cells; host or cells: CV-1 African Green Monkey Kidney cells
T1 sequence (Q96RI1 1-472 isoform Q96RI1-2): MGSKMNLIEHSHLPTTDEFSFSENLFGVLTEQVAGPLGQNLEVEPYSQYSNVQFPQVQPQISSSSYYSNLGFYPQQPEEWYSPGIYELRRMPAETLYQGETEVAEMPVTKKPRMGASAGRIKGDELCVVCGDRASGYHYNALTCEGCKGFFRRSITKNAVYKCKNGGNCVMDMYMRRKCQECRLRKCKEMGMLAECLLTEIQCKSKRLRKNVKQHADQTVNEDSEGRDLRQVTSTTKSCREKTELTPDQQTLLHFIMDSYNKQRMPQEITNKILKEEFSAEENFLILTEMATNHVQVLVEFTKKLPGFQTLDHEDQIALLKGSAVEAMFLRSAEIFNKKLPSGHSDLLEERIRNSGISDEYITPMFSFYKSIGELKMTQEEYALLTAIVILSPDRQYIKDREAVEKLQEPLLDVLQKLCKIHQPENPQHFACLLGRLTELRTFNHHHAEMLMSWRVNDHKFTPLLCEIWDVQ
T1 sequence (P19793 1-462 partner): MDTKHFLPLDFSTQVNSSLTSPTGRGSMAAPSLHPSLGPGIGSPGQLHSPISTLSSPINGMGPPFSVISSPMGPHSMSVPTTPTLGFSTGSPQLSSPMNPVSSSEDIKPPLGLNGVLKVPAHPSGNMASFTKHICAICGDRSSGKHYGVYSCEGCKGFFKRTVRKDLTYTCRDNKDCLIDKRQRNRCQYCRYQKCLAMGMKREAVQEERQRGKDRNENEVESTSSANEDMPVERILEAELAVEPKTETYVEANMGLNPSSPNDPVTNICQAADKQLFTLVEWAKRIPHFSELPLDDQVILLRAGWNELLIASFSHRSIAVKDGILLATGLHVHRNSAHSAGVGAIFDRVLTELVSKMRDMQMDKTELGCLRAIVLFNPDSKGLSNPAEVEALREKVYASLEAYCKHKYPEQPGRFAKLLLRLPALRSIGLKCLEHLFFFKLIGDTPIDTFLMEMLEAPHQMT
Assay: FXR in vitro assays (farnesoid X receptor/ECREx7 co-transfection assay, TR-FRET assay), Table I
Format: cell-based
Details: for Emax: read-out: % Efficacy
Description: The basic co-transfection protocol for measuring the farnesoid X receptor activity is as follows. CV-1 African Green Monkey Kidney cells were plated 24 hours before transfection to achieve approximately 70-80 percent confluency. […] The assay was allowed to continue for an additional 18-20 hours, after which the cells were lysed, with lysis buffer (1% triton X 100, 10% glycerol, 5 mM Dithiothreitol, 1 mM EGTA, 25 mM Tricine, pH 7.8) and the luciferase activity measured in the presence of Luciferase assay buffer (0.73 mM ATP, 22.3 mm Tricine, 0.11 mM EGTA, 0.55 mM Luciferin, 0.15 mM Coenzyme A, 0.5 mM HEPES, 10 mM Magnesium sulphatc) on a standard luminometer plate reader (PE Biosystems, NorthStar Reader), using recommended operating instructions and conditions.
The dose response curves are generated from an 8 point curve with concentrations differing by ½ LOG units. Each point represents the average of 4 wells of data from a 384 well plate. A curve for the data is generated by using the equation:
Y=Bottom+(Top−Bottom)/(1+10̂((Log EC50−X)*HillSlope))
The EC50/IC50 is therefore defined as the concentration at which an agonist or antagonist elicits a response that is half way between the Top (maximum) and Bottom (baseline) values. The EC50/IC50 values represented are the averages of at least 3 independent experiments.

[1] = agonist activity, one or more of the in vitro assays, read-out: EC50

Row | Structure (SMILES) | EC50 [1] [nM] | Emax [%] | EC50 [nM]
1 | CC1(C)CN(C(=O)c2ccc(F)c(F)c2)C=C(C(=O)OCC(O)CO)c2[nH]c3ccccc3c21 (stereo not drawn) [Example 124, 2,3-dihydroxypropyl 3-[(3,4-difluorophenyl)carbonyl]-1,1-dimethyl-1,2,3,6-tetrahydroazepino[4,5-b]indole-5-carboxylate] | 10 to 100 | > 100 | –
2 | CC(C)OC(=O)C1=CN(C(=O)c2c(F)cc(F)cc2F)CC(C)(C)c2c1[nH]c1ccccc21 [Example 78, 1-methylethyl 1,1-dimethyl-3-[(2,4,6-trifluorophenyl)carbonyl]-1,2,3,6-tetrahydroazepino[4,5-b]indole-5-carboxylate] | 10 to 100 | > 100 | –
3 | CC(C)OC(=O)C1=CN(C(=O)c2cc(F)c(Cl)cc2F)CC(C)(C)c2c1[nH]c1ccccc21 [Example 149, 1-methylethyl 3-[(4-chloro-2,5-difluorophenyl)carbonyl]-1,1-dimethyl-1,2,3,6-tetrahydroazepino[4,5- ]indole-5-carboxylate] | 10 to 100 | > 100 | –
4 | CC(C)OC(=O)C1=CN(C(=O)c2cccc(CN3CCNCC3)c2)CC(C)(C)c2c1[nH]c1ccccc21 [Example 178, 1-methylethyl 1,1-dimethyl-3-{[3-(piperazin-1-ylmethyl)phenyl]carbonyl}-1,2,3,6-tetrahydroazepino[4,5-b]indole-5-carboxylate] | > 10000 | – | –
5 | CC(C)OC(=O)C1=CN(C(=O)c2cccc(C#N)c2)CC(C)(C)c2c1[nH]c1ccccc21 [Example 142, 1-methylethyl 3-[(3-cyanophenyl)carbonyl]-1,1-dimethyl-1,2,3,6-tetrahydroazepino[4,5-b]indole-5-carboxylate] | 10 to 100 | > 100 | –
6 | CC(C)OC(=O)C1=CN(C(=O)c2ccc(Cl)cc2Cl)CC(C)(C)c2c1[nH]c1ccccc21 [Example 143, 1-methylethyl 3-[(2,4-dichlorophenyl)carbonyl]-1,1-dimethyl-1,2,3,6-tetrahydroazepino[4,5-b]indole-5-carboxylate] | 10 to 100 | > 100 | –
7 | CC1(C)CN(C(=O)c2ccc(F)c(F)c2)C=C(C(=O)NOCC(O)CO)c2[nH]c3ccccc3c21 (stereo not drawn) [Example 161, 3-[(3,4-difluorophenyl)carbonyl]-N-[(2,3-dihydroxypropyl)oxy]-1,1-dimethyl-1,2,3,6-tetrahydroazepino[4,5-b]indole-5-carboxamide] | > 10000 | – | –
8 | CC(C)OC(=O)C1=CN(C(=O)N2CCCCCC2)CC(C)(C)c2c1[nH]c1ccccc21 [Example 40, 1-methylethyl 3-(azepan-1-ylcarbonyl)-1,1-dimethyl-1,2,3,6-tetrahydroazepino [4,5-b]indole-5-carboxylate] | 1 to 10 | > 100 | –
9 | CC(C)OC(=O)C1=CN(C(=O)N2CCCC(COCCCN(C)C)C2)CC(C)(C)c2c1[nH]c1ccccc21 (stereo not drawn) [Example 55, 1-methylethyl 3-{[3-({[3-(dimethylamino)propyl]oxy}methyl)piperidin-1-yl]carbonyl}-1,1-dimethyl-1,2,3,6-tetrahydroazepino[4,5-b]indole-5-carboxylate] | 1000 to 10000 | – | –
10 | CC(C)OC(=O)C1=CN(C(=O)c2cccc(CN3CCCCCC3)c2)CC(C)(C)c2c1[nH]c1ccccc21 [Example 152, 1-methylethyl 3-{[3-(azepan-1-ylmethyl)phenyl]carbonyl}-1,1-dimethyl-1,2,3,6-tetrahydroazepino[4,5-b]indole-5-carboxylate] | 10 to 100 | > 100 | –
11 | CC(C)OC(=O)C1=CN(C(=O)CCCN(C)C)CC(C)(C)c2c1[nH]c1ccccc21 [Example 20] | 1000 to 10000 | – | –
12 | CCN(CC)CCOc1ccc2c3c([nH]c2c1)C(C(=O)OC(C)C)=CN(C(=O)c1ccc(F)c(F)c1)CC3(C)C [Example 103, 1-methylethyl 8-{[2-(diethylamino)ethyl]oxy}-3-[(3,4-difluorophenyl)carbonyl]-1,1-dimethyl-1,2,3,6-tetrahydroazepino[4,5-b]indole-5-carboxylate] | 100 to 1000 | < 40 | –
13 | CC(C)OC(=O)C1=CN(C(=O)c2ccc(F)c(F)c2F)CC(C)(C)c2c1[nH]c1ccccc21 [Example 77, 1-methylethyl 1,1-dimethyl-3-[(2,3,4-trifluorophenyl)carbonyl]-1,2,3,6-tetrahydroazepino[4,5-b]indole-5-carboxylate] | 1 to 10 | > 100 | –
14 | CC(C)OC(=O)C1=CN(C(=O)c2cccc(CN3CCN(C(=O)C(C)C)CC3)c2)CC(C)(C)c2c1[nH]c1ccccc21 [Example 174, 1-methylethyl 1,1-dimethyl-3-[(3-{[4-(2-methylpropanoyl)piperazin-1-yl]methyl}phenyl)carbonyl]-1,2,3,6-tetrahydroazepino[4,5-b]indole-5-carboxylate] | 100 to 1000 | > 100 | –
15 | CCN(CC)CCCOc1ccc2c3c([nH]c2c1)C(C(=O)OC(C)C)=CN(C(=O)c1ccc(F)c(F)c1)CC3(C)C [Example 104] | 100 to 1000 | 60 to 80 | –
16 | CC(C)OC(=O)C1=CN(C(=O)NCc2ccccc2)CC(C)(C)c2c1[nH]c1ccccc21 [Example 49, 1-methylethyl 1,1-dimethyl-3-{[(phenylmethyl)amino]carbonyl}-1,2,3,6-tetrahydroazepino[4,5-b]indole-5-carboxylate] | 1000 to 10000 | 80 to 100 | –
17 | COCCOc1ccc2c3c([nH]c2c1)C(C(=O)OC(C)C)=CN(C(=O)c1ccc(F)c(F)c1)CC3(C)C [Example 105, 1-methylethyl 3-[(3,4-difluorophenyl)carbonyl]-1,1-dimethyl-8-{[2-(methyloxy)ethyl]oxy}-1,2,3,6-tetrahydroazepino[4,5-b]indole-5-carboxylate] | 100 to 1000 | 80 to 100 | –
18 | CC(C)OC(=O)C1=CN(C(=O)c2c(F)ccc(F)c2Cl)CC(C)(C)c2c1[nH]c1ccccc21 [Example 61, 1-methylethyl 3-[(2-chloro-3,6-difluorophenyl)carbonyl]-1,1-dimethyl-1,2,3,6-tetrahydroazepino[4,5-b]indole-5-carboxylate] | 10 to 100 | > 100 | –
19 | CC(COC(=O)c1ccc(F)c(F)c1)OC(=O)C1=CN(C(=O)c2ccc(F)c(F)c2)CC(C)(C)c2c1[nH]c1ccccc21 (stereo not drawn) [Example 194, 2-{[(3,4-difluorophenyl)carbonyl]oxy}-1-methylethyl 3-[(3,4-difluorophenyl)carbonyl]-1,1-dimethyl-1,2,3,6-tetrahydroazepino[4,5-b]indole-5-carboxylate] | 10 to 100 | > 100 | –
20 | CC1(C)CN(C(=O)c2ccc(F)c(F)c2)C=C(C(=O)CCl)c2[nH]c3ccccc3c21 [Example 121, 2-chloro-1-{3-[(3,4-difluorophenyl)carbonyl]-1,1-dimethyl-1,2,3,6-tetrahydroazepino[4,5-b]indol-5-yl}ethanone] | 100 to 1000 | < 40 | –
21 | CC(=O)C1=CN(C(=O)c2ccc(F)c(F)c2)CC(C)(C)c2c1[nH]c1ccccc21 [Example 106, 1-{3-[(3,4-difluorophenyl)carbonyl]-1,1-dimethyl-1,2,3,6-tetrahydroazepino[4,5-b]indol-5-yl}ethanone] | 100 to 1000 | > 100 | –
22 | CC(C)OC(=O)C1=CN(C(=O)c2ccc(F)c(Cl)c2)CC(C)(C)c2c1[nH]c1ccccc21 [Example 147, 1-methylethyl 3-[(3-chloro-4-fluorophenyl)carbonyl]-1,1-dimethyl-1,2,3,6-tetrahydroazepino[4,5-b]indole-5-carboxylate] | 1 to 10 | > 100 | –
23 | CCN(CC)CCNC(=O)Oc1ccc2c3c([nH]c2c1)C(C(=O)OC(C)C)=CN(C(=O)c1ccc(F)c(F)c1)CC3(C)C [Example 97, 1-methylethyl 8-[({[2-(diethylamino)ethyl]amino}carbonyl)oxy]-3-[(3,4-difluorophenyl)carbonyl]-1,1-dimethyl-1,2,3,6-tetrahydroazepino[4,5-b]indole-5-carboxylate] | – | > 100 | 10 to 100
